According to patent publication US20240423971A1, “APPLICATION OF RIP2 INHIBITOR COMBINED WITH CHEMOTHERAPY DRUG” (NINGBO COMBIREG PHARMACEUTICAL TECHNOLOGY CO., LTD., priority 2021, published 2024):

Assays:
Assay type in all cases: in vivo, C57BL/6 mice
melanoma (B16F10) [1] = assay: Melanoma (B16F10) tumor-bearing model, GSK583 combined with DTX; conditions: for tumor growth compared to the vehicle control group: B16-F10 s.c. in C57BL/6 mice, GSK583 1 mg/kg i.v. every 4 days x4, DTX 5 mg/kg i.v. every 7 days x3, to DAY 16
Experimental: Both of the test substances DTX and GSK583 were prepared as a 20×DMSO stock solution, which was diluted with normal saline containing 5% polyoxyethylene castor oil (Cremophor EL) to the administration concentration before use.
Experimental animals and tumor strains: SPF grade male wild-type C57BL/6 mice, 6 to 8 weeks old, purchased from Beijing Vital River Laboratory Animal Technology Co., Ltd. Cells used in the experiment: murine melanoma cells (B16-F10), purchased from ATCC.
Mice were randomly divided into 4 groups with 8 mice in each group based on body weight according to the method shown in (A and B of FIG. 4), namely: (i) vehicle control group; (ii) GSK583 (1 mg/kg) group; (iii) Docetaxel (DTX; 5 mg/kg) group; (iv) GSK583 (1 mg/kg)+DTX (5 mg/kg) group. DTX was administered intravenously once every 7 days for a total of 3 doses; GSK583 and vehicle control were administered intravenously once every 4 days for a total of 4 doses. The mice were subcutaneously inoculated with B16-F10 cells with a concentration of 2× 10^6 cells/mL and 0.1 mL/mouse, and the day of inoculation was recorded as DAY 0. The administration was started on DAY 1. During the administration, the animals were weighed every 2 days. The long diameter and short diameter of the tumor were measured with a vernier caliper. The tumor size was calculated by the formula: (½)×long diameter×(short diameter) 2. The mice were euthanized on DAY 16, and after dissection, the tumor was weighed and the tumor inhibition rate was calculated.

melanoma (B16F10) [2] = assay: Melanoma (B16F10) tumor-bearing model, GSK583 combined with GEM; conditions: GSK583 1 mg/kg; for tumor growth compared to the vehicle control group: B16-F10 s.c. in C57BL/6 mice, GEM 60 mg/kg i.v. once every 4 days, 4 doses, to DAY 15
Experimental: The test substance GEM was prepared in normal saline, and GSK583 was prepared as a 20×DMSO stock solution, which was diluted with normal saline containing 5% polyoxyethylene castor oil (Cremophor EL) to the administration concentration before use. Experimental animals and tumor strains: SPF grade male wild-type C57BL/6 mice, 6 to 8 weeks old, purchased from Beijing Vital River Laboratory Animal Technology Co., Ltd. Cells used in the experiment: murine melanoma cells (B16-F10), purchased from ATCC. Mice were randomly divided into 4 groups with 8 mice in each group based on body weight according to the method shown in (A and B of FIG. 6), namely: (i) vehicle control group; (ii) GSK583 (1 mg/kg) group; (iii) GEM (60 mg/kg) group; (iv) GSK583 (1 mg/kg)+GEM (60 mg/kg) group. GEM, GSK583, and vehicle control were administered intravenously once every 4 days for a total of 4 doses. The mice were subcutaneously inoculated with B16-F10 cells with a concentration of 2× 10^6 cells/mL and 0.1 mL/mouse, and the day of inoculation was recorded as DAY 0. The administration was started on DAY 1. During the administration, the animals were weighed every 2 days. The long diameter and short diameter of the tumor were measured with a vernier caliper. The tumor size was calculated by the formula: (½)× long diameter×(short diameter) 2. The experiment was terminated on DAY 15. After the mice were euthanized and dissected, the tumor was weighed and photographed, and the tumor inhibition rate was calculated.

colorectal cancer (MC38) [3] = assay: Colorectal cancer (MC38) tumor-bearing model, GSK583 combined with GEM; conditions: GSK583 1 mg/kg; for tumor growth compared to the vehicle control group: MC38 s.c. in C57BL/6 mice, tumors 50 to 100 mm^3 at start, GEM 40 mg/kg i.v. once every 4 days, 4 doses, to DAY 14
Experimental: The test substance GEM was prepared in normal saline, and GSK583 was prepared as a 20×DMSO stock solution, which was diluted with normal saline containing 5% polyoxyethylene castor oil (Cremophor EL) to the administration concentration before use. Experimental animals and tumor strains: SPF grade male wild-type C57BL/6 mice, 6 to 8 weeks old, purchased from Beijing Vital River Laboratory Animal Technology Co., Ltd. Cells used in the experiment: murine colorectal cancer cells (MC38), purchased from Union Cell Bank (China). According to the method shown in (A and B of FIG. 8), the mice were subcutaneously inoculated with MC38 cells with a concentration of 2×10^6 cells/mL and 0.1 mL/mouse. When the tumor grew to a volume within the range of 50 to 100 mm^3, the mice were randomly divided into 4 groups with 8 mice in each group based on tumor volume, and the administration was started with the following regimen: (i) vehicle control group; (ii) GSK583 (1 mg/kg) group; (iii) GEM (40 mg/kg) group; (iv) GSK583 (1 mg/kg)+GEM (40 mg/kg) group. GEM, GSK583, and vehicle were administered intravenously once every 4 days for a total of 4 doses. The day of grouping and administration was recorded as DAY 0. During the administration, the animals were weighed every 3 days. The long diameter and short diameter of the tumor were measured with a vernier caliper. The tumor size was calculated by the formula: (½)× long diameter× (short diameter) 2. The experiment was terminated on DAY 14. After the mice were euthanized and dissected, the tumor was weighed and photographed, and the tumor inhibition rate was calculated.

melanoma (B16F10) [4] = assay: Melanoma (B16F10) tumor-bearing model, GSK583 combined with PTX; conditions: B16-F10 s.c. in C57BL/6 mice; GSK583 1 mg/kg, PTX 10 mg/kg i.v. once every 4 days, 4 doses; to DAY 15
Experimental: Both of the test substances PTX (Sigma) and GSK583 (MCE) were prepared as a 20× DMSO stock solution, which was diluted with normal saline containing 5% (v/v) polyoxyethylene castor oil (Cremophor EL) to the administration concentration before use. Experimental animals and tumor strains: SPF grade male wild-type C57BL/6 mice, 6 to 8 weeks old, purchased from Beijing Vital River Laboratory Animal Technology Co., Ltd. Cells used in the experiment: murine melanoma cell line (B16-F10), purchased from ATCC. Mice were randomly divided into 4 groups with 8 mice in each group based on body weight according to the method shown in (A of FIG. 1 and B of FIG. 1), namely: (i) vehicle control group; (ii) GSK583 (1 mg/kg) group; (iii) PTX (10 mg/kg) group; (iv) GSK583 (1 mg/kg)+PTX (10 mg/kg) group. PTX, GSK583, and vehicle were administered intravenously once every 4 days for a total of 4 doses. The mice were subcutaneously inoculated with B16-F10 cells with a concentration of 2× 10^6 cells/mL and 0.1 mL/mouse, and the day of inoculation was recorded as DAY 0. The administration was started on DAY 1. During the administration, the animals were weighed every 2 days. The long diameter and short diameter of the tumor were measured with a vernier caliper. The tumor size was calculated by the formula: (½)×long diameter×(short diameter) 2. The experiment was terminated on DAY 15. After the mice were euthanized and dissected, the tumor was weighed and the tumor inhibition rate was calculated.

colorectal cancer (MC38) [5] = assay: Colorectal cancer (MC38) tumor-bearing model, GSK583 combined with OXA; conditions: GSK583 1 mg/kg; for tumor growth compared to the vehicle control group: MC38 s.c. in C57BL/6 mice, tumors 100 mm^3 at start, OXA 6 mg/kg i.v. once every 4 days, 4 doses, to DAY 14
Experimental: According to the method shown in (A and B of FIG. 10), the mice were subcutaneously inoculated with MC38 cells with a concentration of 5×10^6 cells/mL and 0.1 mL/mouse. […] OXA, GSK583, and vehicle were administered intravenously once every 4 days for a total of 4 doses. The day of grouping and administration was recorded as DAY 0. During the administration, the animals were weighed every 3 days. The long diameter and short diameter of the tumor were measured with a vernier caliper. The tumor size was calculated by the formula: (½)×long diameter×(short diameter) 2. The experiment was terminated on DAY 14. After the mice were euthanized and dissected, the tumor was weighed and photographed, and the tumor inhibition rate was calculated.

SMILES | tumor growth compared to the vehicle control group (melanoma (B16F10) [1]) | tumor growth compared to the vehicle control group (melanoma (B16F10) [2]) | tumor growth compared to the vehicle control group (colorectal cancer (MC38) [3]) | tumor growth compared to the vehicle control group (colorectal cancer (MC38) [5]) | also measured
CC(=O)O[C@@]12CO[C@@H]1C[C@H](O)[C@@]1(C)C(=O)[C@H](O)C3=C(C)[C@@H](OC(=O)[C@H](O)[C@@H](NC(=O)OC(C)(C)C)c4ccccc4)C[C@@](O)([C@@H](OC(=O)c4ccccc4)[C@H]21)C3(C)C [DTX, Docetaxel] | significantly inhibited tumor growth | – | – | – | tumor weight at the end of the administration (melanoma (B16F10) [1]; B16-F10 in C57BL/6 mice, GSK583 1 mg/kg, DTX 5 mg/kg i.v., DAY 16, vs control group): significantly and statistically lower than that of the control group; growth rate of tumor volume (melanoma (B16F10) [1]; B16-F10 in C57BL/6 mice, GSK583 1 mg/kg, DTX 5 mg/kg i.v., vs control group): slower than that of the control group
Nc1ccn([C@@H]2O[C@H](CO)[C@@H](O)C2(F)F)c(=O)n1 [GEM, Gemcitabine] | – | significantly inhibited tumor growth | no significant inhibitory effect | – | tumor weight at the end of the administration (melanoma (B16F10) [2]; B16-F10 in C57BL/6 mice, GEM 60 mg/kg i.v. every 4 days x4, DAY 15, vs control group): significantly and statistically lower than that of the control group; growth rate of tumor volume (melanoma (B16F10) [2]; B16-F10 in C57BL/6 mice, GEM 60 mg/kg i.v. every 4 days x4, vs control group): slower than that of the control group; growth rate of tumor volume (colorectal cancer (MC38) [3]; MC38 in C57BL/6 mice, GEM 40 mg/kg i.v. every 4 days x4): no significant inhibitory effect
CC(C)(C)S(=O)(=O)c1ccc2nccc(Nc3n[nH]c4ccc(F)cc34)c2c1 [GSK583] | no significant inhibitory effect on tumor growth | no significant inhibitory effect on tumor growth | no significant inhibitory effect on tumor growth | no significant inhibitory effect on tumor growth | tumor growth compared to the vehicle control group (melanoma (B16F10) [4]): no significant inhibitory effect on tumor growth
O=C1[O][Pt]2([NH][C@@H]3CCCC[C@H]3[NH]2)[O]C1=O [OXA, Oxaliplatin] | – | – | – | no significant inhibitory effect | growth rate of tumor volume (colorectal cancer (MC38) [5]; MC38 in C57BL/6 mice, OXA 6 mg/kg i.v. every 4 days x4): no significant inhibitory effect
